Assay results from patent publication US20040024024A1, “Aromatic sulfone hydroxamates and their use as protease inhibitors” (priority 2001, published 2004).

Key:
Test in all cases: In vitro MMP inhibition, IC50 determination (fluorogenic substrate I)
Type in all cases: biochemical
Details in all cases: value outside parenthesis
[1] = molecular target: T1, Human recombinant MMP-1 (Homo sapiens, UniProt P03956)
T1 construct: made in house; host or cells: MMP-1-transfected HT-1080 cells (spent media)
T1 sequence (P03956 100-469): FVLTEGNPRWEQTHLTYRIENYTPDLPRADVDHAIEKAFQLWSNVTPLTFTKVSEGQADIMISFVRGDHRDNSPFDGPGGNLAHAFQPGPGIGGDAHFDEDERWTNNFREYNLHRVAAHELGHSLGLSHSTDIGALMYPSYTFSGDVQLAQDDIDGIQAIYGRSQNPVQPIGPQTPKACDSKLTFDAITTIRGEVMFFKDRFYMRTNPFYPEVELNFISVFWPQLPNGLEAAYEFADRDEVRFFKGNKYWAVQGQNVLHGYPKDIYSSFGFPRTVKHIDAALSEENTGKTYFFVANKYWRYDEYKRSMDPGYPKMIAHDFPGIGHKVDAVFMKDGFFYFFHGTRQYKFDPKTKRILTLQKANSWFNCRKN
Summary of the method: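 APMA- or trypsin-activated enzyme, purified from spent media of transfected HT-1080 cells, incubated at room temperature with 4 μM MCA-Pro-Leu-Gly-Leu-Dpa-Ala-Arg-NH2 and graded inhibitor in Tris buffer pH 7.5 (10 mM CaCl2, 0.05% Brij). Cleavage read by fluorescence (ex 328/em 415 nm); IC50 from fluorescence reduction versus inhibitor concentration.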

[2] = molecular target: T2, Human recombinant MMP-2 (Homo sapiens, UniProt P08253)
T2 construct: made in house; host or cells: MMP-2-transfected p2AHT2 cells
T2 sequence (P08253 110-660): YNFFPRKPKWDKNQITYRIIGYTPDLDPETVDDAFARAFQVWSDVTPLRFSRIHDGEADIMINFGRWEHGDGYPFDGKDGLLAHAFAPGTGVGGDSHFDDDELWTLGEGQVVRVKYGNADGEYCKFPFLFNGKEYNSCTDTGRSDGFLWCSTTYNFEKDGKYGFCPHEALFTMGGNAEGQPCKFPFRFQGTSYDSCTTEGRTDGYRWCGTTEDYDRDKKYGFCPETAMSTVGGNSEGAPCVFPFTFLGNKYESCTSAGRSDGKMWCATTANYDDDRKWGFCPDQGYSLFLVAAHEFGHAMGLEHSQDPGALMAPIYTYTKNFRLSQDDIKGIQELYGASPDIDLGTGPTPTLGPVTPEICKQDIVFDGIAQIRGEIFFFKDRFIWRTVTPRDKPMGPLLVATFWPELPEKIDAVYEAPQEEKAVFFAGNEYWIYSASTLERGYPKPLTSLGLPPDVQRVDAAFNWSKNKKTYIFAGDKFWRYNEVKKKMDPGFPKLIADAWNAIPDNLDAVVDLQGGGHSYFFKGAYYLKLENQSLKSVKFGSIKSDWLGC
Summary of the method: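 APMA- or trypsin-activated recombinant MMP-2 was incubated at room temperature with serial inhibitor dilutions in Tris buffer pH 7.5 (100 mM NaCl, 10 mM CaCl2, 0.05% Brij), with DMSO from 1% stocks, and 4 μM substrate I. Cleavage was read by fluorescence at 328/415 nm; IC50 was taken from the loss of fluorescence versus inhibitor concentration.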

[3] = molecular target: T3, Human recombinant MMP-9 (Homo sapiens, UniProt P14780)
T3 construct: made in house; host or cells: MMP-9-transfected HT1080 cells (spent media)
Summary of the method: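 MMP-9 proenzyme purified from transfected HT1080 cell media, activated with APMA or trypsin. Compound dilutions in pH 7.5 Tris/NaCl/CaCl2 buffer with 0.05% polyoxyethylene 23 lauryl ether, incubated at room temperature with 4 μM MCA/Dpa substrate I. IC50 from fluorescence loss (ex 328, em 415 nm) versus inhibitor concentration.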

[4] = molecular target: T4, Human recombinant MMP-13 (Homo sapiens, UniProt P45452)
T4 construct: made in house; host or cells: baculovirus / insect cells
Summary of the method: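 Fluorescence at 415 nm (excitation 328 nm) reports Gly-Leu cleavage of 4 μM quenched methoxycoumarin peptide substrate I. Human recombinant MMP-13, activated by trypsin or APMA, was incubated at room temperature with varied inhibitor concentrations in pH 7.5 Tris/NaCl/CaCl2 buffer; IC50 derived from reduced fluorescence.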

[5] = molecular target: T5, Human recombinant MMP-14 (Homo sapiens, UniProt P50281)
T5 construct: The catalytic domain enzyme was expressed in E. coli inclusion bodies, solubilized in urea; made in house
Summary of the method: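 Catalytic-domain MMP-14, expressed in E. coli and refolded, activated with APMA or trypsin; compounds incubated at room temperature with 4 μM fluorogenic substrate I (MCA-PLGL-Dpa-AR-NH2) in Tris/NaCl/CaCl2 buffer, pH 7.5. Fluorescence at ex 328/em 415 nm; IC50 from loss of fluorescence versus inhibitor concentration.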

T3 sequence (P14780 107-707 limits assumed): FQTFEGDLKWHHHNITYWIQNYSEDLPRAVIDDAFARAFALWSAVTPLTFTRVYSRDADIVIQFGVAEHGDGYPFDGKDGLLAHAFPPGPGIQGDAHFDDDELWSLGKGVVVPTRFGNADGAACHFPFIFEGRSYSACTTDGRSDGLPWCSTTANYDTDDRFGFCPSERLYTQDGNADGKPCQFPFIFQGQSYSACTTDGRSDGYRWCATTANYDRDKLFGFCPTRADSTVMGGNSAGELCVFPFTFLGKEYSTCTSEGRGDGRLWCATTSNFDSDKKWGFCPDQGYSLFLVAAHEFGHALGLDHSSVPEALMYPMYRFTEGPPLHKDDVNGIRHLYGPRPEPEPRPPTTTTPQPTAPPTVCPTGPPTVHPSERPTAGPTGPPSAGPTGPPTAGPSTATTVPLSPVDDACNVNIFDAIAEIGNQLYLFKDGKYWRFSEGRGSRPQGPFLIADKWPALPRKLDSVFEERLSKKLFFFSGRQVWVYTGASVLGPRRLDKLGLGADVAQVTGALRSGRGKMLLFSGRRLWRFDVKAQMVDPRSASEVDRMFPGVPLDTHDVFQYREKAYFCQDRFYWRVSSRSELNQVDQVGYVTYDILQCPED

| SMILES | IC50 [1] [nM] | IC50 [2] [nM] | IC50 [3] [nM] | IC50 [4] [nM] | IC50 [5] [nM] |
| --- | --- | --- | --- | --- | --- |
| O=C(NO)C1(S(=O)(=O)c2ccc(OCCCc3nc(-c4ccc5c(c4)OCO5)no3)cc2)CCOCC1 [Example 215] | > 10000 | 20.3 | 768 | 0.3 | > 10000 |
| COc1cc(OC)cc(-c2noc(CCCOc3ccc(S(=O)(=O)C4(C(=O)NO)CCOCC4)cc3)n2)c1 [Example 217] | > 10000 | 48.9 | 5180 | 4.6 | > 10000 |
| Cc1ccc(-c2noc(CCCOc3ccc(S(=O)(=O)C4(C(=O)NO)CCOCC4)cc3)n2)c(F)c1 [Example 218] | > 10000 | 40.4 | 2970 | 1.4 | > 10000 |
| COc1ccccc1-c1nnc(CCCOc2ccc(S(=O)(=O)C3(C(=O)NO)CCOCC3)cc2)o1 [Example 220] | > 10000 | 410 | 1470 | 5.7 | > 10000 |
| O=C1CN(c2ccccc2Cl)C(=O)N1CCCOc1ccc(S(=O)(=O)C2(C(=O)NO)CCOCC2)cc1 [Example 224] | > 10000 | 193 | 1470 | 4.7 | > 10000 |
| Cc1ccccc1N1CC(=O)N(CCCOc2ccc(S(=O)(=O)C3(C(=O)NO)CCOCC3)cc2)C1=O [Example 226] | > 10000 | 222 | 2140 | 4.3 | > 10000 |
| COCCN1CCC(C(=O)NO)(S(=O)(=O)c2ccc(OCCCNC(=O)c3ccc(OC(C)C)c(C)c3)cc2)CC1 [Example 230] | > 10000 | 555 | 1020 | 1.1 | > 10000 |
| COc1ccc(C(=O)CCCc2ccc(S(=O)(=O)C3(C(=O)NO)CCOCC3)cc2)cc1 [Example 231] | > 10000 | 1.6 | 10.2 | 0.2 | 642 |
| O=C1CN(c2cccc(OC(F)(F)F)c2)C(=O)N1CCCOc1ccc(S(=O)(=O)C2(C(=O)NO)CCOCC2)cc1 [Example 232] | > 10000 | 74.2 | 878 | 5.6 | > 10000 |
| COc1ccc(-c2noc(CCCOc3ccc(S(=O)(=O)C4(C(=O)NO)CCOCC4)cc3)n2)cc1 [Example 237] | > 10000 | 42.5 | 1110 | 0.7 | > 10000 |
| Cc1cccc(-c2noc(CCCOc3ccc(S(=O)(=O)C4(C(=O)NO)CCOCC4)cc3)n2)c1 [Example 238] | > 10000 | 78.7 | 1190 | 1.2 | > 10000 |
| O=C(NO)C1(S(=O)(=O)c2ccc(OCCCc3nc(-c4ccc(F)cc4)no3)cc2)CCOCC1 [Example 240] | > 10000 | 84 | 1430 | 0.7 | > 10000 |
| O=C(NO)C1(S(=O)(=O)c2ccc(OCCCc3nc(-c4ccccc4)no3)cc2)CCOCC1 [Example 241] | > 10000 | 60.2 | 944 | 1.3 | > 10000 |
| O=C(NO)C1(S(=O)(=O)c2ccc(OCCCc3nc(-c4ccc(Cl)cc4)no3)cc2)CCOCC1 [Example 243] | 9310 | 49.4 | 2100 | 0.5 | > 10000 |
| O=C(NO)C1(S(=O)(=O)c2ccc(OCCCc3nnc(Cl)o3)cc2)CCOCC1 [Example 244] | 3250 | 18.8 | 108 | 0.7 | > 10000 |
| COCCN1CCC(C(=O)NO)(S(=O)(=O)c2ccc(OCCCCC(=O)c3ccc(OC)cc3)cc2)CC1 [Example 245] | > 10000 | 8.6 | 61.1 | 0.2 | > 10000 |
| CC(C)c1ccc(C(=O)NNC(=O)CCCOc2ccc(S(=O)(=O)C3(C(=O)NO)CCOCC3)cc2)cc1 [Example 246] | 1170 | 7.5 | 105 | 3 | > 10000 |
| CC(C)c1ccc(-c2nnc(CCCOc3ccc(S(=O)(=O)C4(C(=O)NO)CCOCC4)cc3)o2)cc1 [Example 247] | 3610 | 445 | 341 | 1.1 | > 10000 |
| COCCN1CCC(C(=O)NO)(S(=O)(=O)c2ccc(OCCCCC(=O)c3ccc(N(C)C)cc3)cc2)CC1 [Example 248] | > 10000 | 15.7 | 106 | 0.2 | 1700 |
| COc1ccc(-c2nnn(CCCOc3ccc(S(=O)(=O)C4(C(=O)NO)CCOCC4)cc3)n2)cc1 [Example 252] | 5600 | 47.9 | 1050 | 0.2 | > 10000 |
| Cc1cc(C(=O)CCCCOc2ccc(S(=O)(=O)C3(C(=O)NO)CCN(C4CC4)CC3)cc2)ccc1OC(C)C [Example 254] | > 10000 | 138 | 968 | 1.7 | > 10000 |
| COc1ccc(CCCCc2ccc(S(=O)(=O)C3(C(=O)NO)CCOCC3)cc2)cc1 [Example 256] | > 10000 | 0.1 | 37.9 | < 0.1 | > 10000 |
| O=C(NO)C1(S(=O)(=O)c2ccc(OCCCc3nnc(-c4ccc(-c5ccccc5)cc4)o3)cc2)CCOCC1 [Example 257] | > 10000 | 174 | 6230 | 0.5 | > 10000 |
| Cc1cccc(-c2nnc(CCCOc3ccc(S(=O)(=O)C4(C(=O)NO)CCOCC4)cc3)o2)c1 [Example 258] | > 10000 | 173 | 1960 | 1.7 | > 10000 |
| Cc1ccc(-c2nnc(CCCOc3ccc(S(=O)(=O)C4(C(=O)NO)CCOCC4)cc3)o2)cc1 [Example 259] | 7260 | 201 | 1880 | 0.7 | > 10000 |
| O=C(NO)C1(S(=O)(=O)c2ccc(OCCCc3nnc(-c4ccc(Cl)cc4)o3)cc2)CCOCC1 [Example 260] | 1160 | 13.2 | 391 | 1.8 | > 10000 |
| O=C(NO)C1(S(=O)(=O)c2ccc(OCCCc3nnc(-c4ccccc4Cl)o3)cc2)CCOCC1 [Example 261] | > 10000 | 178 | 1190 | 1.9 | > 10000 |
| O=C(NO)C1(S(=O)(=O)c2ccc(OCCCc3nnc(CC4CCCCC4)o3)cc2)CCOCC1 [Example 262] | > 10000 | 118 | 1700 | 3 | > 10000 |
| CCOc1ccccc1-c1noc(CCCOc2ccc(S(=O)(=O)C3(C(=O)NO)CCOCC3)cc2)n1 [Example 264] | > 10000 | 163 | 287 | 5.3 | > 10000 |
